Laboratory results: paper PMC7719179, “Small molecule inhibition of Dynamin-dependent endocytosis targets multiple niche signals and impairs leukemia stem cells” (Nature Communications, 2020)
Where “and” joins values, the source holds several entries; their conditions need not be identical. Equal values may be shown once.

Legend:
[1] = system: pre-LSCs within the DN3a thymocyte population of Lmo2^Tg mice; experiment: Limiting dilution transplantation assay, pre-LSC frequency; type: in vivo, mouse
Method: Single-cell suspension of murine thymus cells were intravenously injected into sublethally irradiated (650 Rads) isogenic Ly5.1 (Cd45.1) mice. Fold expansion was calculated by dividing the absolute output number of donor-derived DN3a cells harvested at the experimental endpoint by the respective number of DN3a thymocytes injected in each recipient. Limiting dilution transplantations were performed as described, by injecting various doses (10^1 to 10^6) of thymocytes per recipient, and mice were scored positive when T-cell lineage reconstitution assessed 6 weeks after transplantation was >1%. Leukemia-propagating cell frequency was calculated by applying Poisson statistics using the ELDA: Extreme Limiting Dilution Analysis software (Walter and Eliza Hall Institute Bioinformatics, Parkville VIC, Australia)[96]. Limiting dilution transplantations were performed independently from any other transplantation assays, using thymocytes from three different Lmo2^Tg mice for each cohort. Kaplan–Meier survival and statistical analysis were performed using GraphPad Prism. 6.0 software (GraphPad Software Inc, San Diego CA, USA).

[2] = system: self-renewing pre-LSCs in Mx;YFP;Lmo2^Tg mice; experiment: Intrathymic competition assay in Mx;YFP;Lmo2^Tg mice (%YFP+ DN3a thymocytes, BM); type: in vivo, mouse
From the text: To exclude this possibility, we used a cell-marking strategy that enables detection of pre-LSCs in the absence of transplantation. In this assay, treatment of Mx1-Cre transgenic Rosa26-YFP (Mx;YFP) reporter mice with polyinosinic-polycytidylic acid (poly (I : C)) induces yellow fluorescent protein (YFP) expression in hematopoietic stem cells (HSCs)[10] (Supplementary Fig. 4e). In WT Mx;YFP mice, normal turnover of the thymus by HSCs leads to the generation of YFP-labelled DN3a cells over a 3-week period. However, in Mx;YFP;Lmo2^Tg mice, the presence of self-renewing pre-LSCs prevents YFP-labelled HSCs to replenish the thymus[10] and, thus, Lmo2^Tg DN3a thymocytes remain YFP negative. Therefore, we reasoned that therapies targeting pre-LSC self-renewal would allow migration of YFP^+ HSCs with the generation of YFP-labelled thymocytes.

[3] = system: pSTAT5 in patient-derived ETP-ALL and T-ALL cells; experiment: IL-7-induced pSTAT5 in human ETP-ALL and T-ALL xenograft cells; type: cell-based; details: for pSTAT5 relative expression, FOLD: fold over unstimulated
Method: Splenocytes from secondary xenografts were processed as previously described. […] Flow cytometric analysis of surface IL-7R levels and intracellular levels of pSTAT5 were performed as described in the FACS analysis section. For activation of NOTCH1-mediated signalling, 5 × 10^5 rested leukemia cells were seeded on OP9-DL1 stromal cells. Co-culture on OP9 stromal cells was used as a negative control. After 16 h of co-culture, leukemia cells were washed twice using cold PBS 1×. Flow cytometric analysis of NOTCH1 expression and intracellular levels of HES1 were performed as described in the FACS analysis section.

[4] = system: AML01-307 and AML18 patient-derived xenografts; experiment: Survival (Kaplan-Meier) and leukemia growth delay in AML01-307 and AML18 xenograft recipients; type: in vivo, human; details: PDX AML01-307
Method: Patient-derived xenograft models were established as previously described[97],[98]. All experiments were pre-approved by the Human Research Ethics Committee of the University of New South Wales (UNSW), the UNSW Animal Care and Ethics Committee, the Alfred Health Human Ethics Committee and the AMREP Animal Ethics Committee. For transplantation assays, 10^6 splenocytes harvested from successfully engrafted primary human ETP-ALL or T-ALL xenografts were injected into nonobese diabetic/severe combined immunodeficient (NOD.Cg-Prkdc^scid, also termed NOD/SCID) or NOD/SCID/Il2rg^tm1wjl/SzJ (NSG) mice[99]. Moreover, 1.5 × 10^6 cells splenocytes harvested from successfully engrafted patient-derived AML xenografts were injected into nonobese diabetic/severe immunodeficient (NOD.Cg-Rag1^tm1MomIl2rg^tm1wjl/SzJ, also termed NRG) mice expressing human IL-3, human GM-CSF and human SCF from the SGM3 triple transgene (NRGS)[100]. Engraftment into recipients was monitored by FACS analysis of peripheral blood as previously described. […] Both males and females were used. […] Kaplan–Meier survival and statistical analyses were performed using GraphPad Prism. 6.0 software (GraphPad Software, Inc.). […]

## CCCCCCCCNC(=O)C(C#N)=Cc1cn(CCCN(C)C)c2ccccc12 [Dynole 34-2, 2-Cyano-N-octyl-3-(1-(3-dimethylaminopropyl)-1H-indol-3-yl)-acrylamide]
[1]; cell dose 106, 9 recipients tested
  Limiting dilution assay, Response (positive recipients): 0
[1]; cell dose 1060, 9 recipients tested
  Limiting dilution assay, Response (positive recipients): 0
[1]; cell dose 10602, 6 recipients tested
  Limiting dilution assay, Response (positive recipients): 3
[1]; cell dose 106020, 6 recipients tested
  Limiting dilution assay, Response (positive recipients): 5
[1]; treated Lmo2^Tg mice vs vehicle
  fold decrease in pre-LSC frequency: 100 fold
[2]; Mx, YFP, Lmo2Tg mice, individual mice
  % YFP+ cells in DN3a population: 70.1% and 38.6% and 29.3%
[2]; Mx;YFP;Lmo2^Tg mice, vehicle 10%
  YFP-labelled DN3a thymocytes: 46%
[2]; genotype Mx, YFP, Lmo2Tg
  % YFP+ cells in bone marrow: 99% and 98.9%
[3]; ALL8
  pSTAT5 relative expression, MFI: 3715 MFI and 3714 MFI
  pSTAT5 relative expression, FOLD: 1.22 FOLD
[3]; ALL16
  pSTAT5 relative expression, MFI: 2090 MFI and 2194 MFI
  pSTAT5 relative expression, FOLD: 0.95 FOLD and 0.91 FOLD
[3]; ALL29
  pSTAT5 relative expression, MFI: 3568 MFI and 3339 MFI
  pSTAT5 relative expression, FOLD: 1.36 FOLD and 1.45 FOLD
[3]; ALL31
  pSTAT5 relative expression, MFI: 2246 MFI and 2071 MFI
  pSTAT5 relative expression, FOLD: 1.23 FOLD and 1.34 FOLD
[3]; ALL33
  pSTAT5 relative expression, MFI: 2163 MFI and 2294 MFI
  pSTAT5 relative expression, FOLD: 1.35 FOLD and 1.27 FOLD
[3]; ETP1
  pSTAT5 relative expression, MFI: 6780 MFI and 6557 MFI
  pSTAT5 relative expression, FOLD: 2.05 FOLD and 2.11 FOLD
[3]; ETP5
  pSTAT5 relative expression, MFI: 3059 MFI and 3334 MFI
  pSTAT5 relative expression, FOLD: 1.58 FOLD and 1.45 FOLD
[3]; ETP8
  pSTAT5 relative expression, MFI: 6837 MFI and 6719 MFI
  pSTAT5 relative expression, FOLD: 2.21 FOLD and 2.25 FOLD
[3]; ETP12
  pSTAT5 relative expression, MFI: 6017 MFI and 6210 MFI
  pSTAT5 relative expression, FOLD: 2.47 FOLD and 2.39 FOLD
[3]; ETP13
  pSTAT5 relative expression, MFI: 7147 MFI and 4013 MFI
  pSTAT5 relative expression, FOLD: 0.99 FOLD and 1.76 FOLD
[3]; ETP14
  pSTAT5 relative expression, MFI: 7024 MFI and 6660 MFI
  pSTAT5 relative expression, FOLD: 1.46 FOLD and 1.54 FOLD
[3]; immature and mature subtypes of human T-ALL, 1 h pre-treatment, result in words
  pSTAT5 protein levels: significantly decreased
[4]
  Time to leukemia: 7 weeks and 8.71 weeks and 8.57 weeks and 7.57 weeks and 8.43 weeks
